Experiments:
[1] = target: MCP protein (Human cytomegalovirus, UniProt P16729); conditions: increasing concentrations of peptide (0.1 to 10 μg), FIG. 2
Description: To investigate the interaction between the UL80.5 peptide and MCP, an ELISA assay was developed. For this purpose, a 96 well microtiter plate (Nunc—Immuno Maxisorp) was coated with 100 μl per well of a 1/50 dilution (in carbonate buffer: 40 mM NaCO3, 36 mM NaHCO3, 3mM Na Azide pH 9.6) of recombinant baculovirus supernatant containing MCP (prepared as described above). The plate was incubated at 37° C. for 2 hours. The plate was then washed 4-5 times in 200 μl per well of PBS (1.37 M NaCl, 80 mM Na2HPO4, 26.8 KCl, 14.7 mM KH2PO4, pH 7.0) containing 0.2 % Triton X-100, followed by incubation with 0.1 μg of UL80.5 peptide (SEQ ID NO:3) diluted in carbonate buffer for 1 hour at 37° C. The plate was then washed to remove any unbound peptide, and subsequent nonspecific binding blocked by the addition of 200 μl of 1% casein block (Pierce; Rockford, Ill.) 3 times for 30 seconds each at room temperature. The plate was washed as before, and 200 μl of a primary antipeptide antibody (prepared as described above) diluted 1/5000 in wash buffer (PBS containing 0.2% Triton X-100) was added and incubated for 1 hour at room temperature. […] Following a 30 minute room temperature incubation in the dark, the plate was read at 450 nm on a microtiter plate reader. […]

[2] = target: T1, UL80.5 gene product/MCP interaction (Human cytomegalovirus, UniProt P16729); test: competitive binding assay (ELISA): inhibition of UL80.5 gene product/MCP interaction; parameters: species or system CMV; conditions: 0.1 μg of UL80.5 peptide; compound 0.4 to 50 μM; average of six independent experiments (FIG. 3); read-out: average IC50 (concentration at which binding is reduced by 50%)
T1 construct: Recombinant baculovirus Autographa californiica nuclear polyhedrosis virus expressing full-length CMV MCP; made in house; host or cells: Sf9 insect cells infected with recombinant baculovirus; crude clarified supernatant used for coating
Description: Inhibitor activity was detected using a competitive binding assay. Scaffolding polypeptide and the compound to be tested are added sequentially or simultaneously to a microtiter plate precoated with full-length MCP. A primary antibody specific for the scaffolding polypeptide is then added, followed by a labeled secondary antibody directed against the primary antibody, and signal from the label measured. If the compound is unable to compete for binding, then the peptide binds to MCP and a signal is detected. […] In all assays a background control is included in which no peptide is added, but all other reagents are identical. In addition, a set of samples in which no compound is added is also included. This value is set at 100% and the percent inhibition is calculated relative to this number. […]
In order to determine if potential inhibitors of UL80.5 gene product/MCP interaction could be detected with this assay, compounds were assayed for activity.
In order to assay for inhibitors in a high throughput manner, the ELISA assay described above was modified. […] The plates were washed 6 times, and 50 μl of Wallac enhancement solution (Wallac; Gaithersburg, Md.) added, and the plate shaken for 10 minutes, before being read on a Wallac VICTOR microtiter plate reader (Wallac; Gaithersburg, Md.).

Row | Compound | concentration of peptide at which 50% binding to MCP occurred [1] | IC50 [2]
1 | NH2-Ala-Ser-Gln-Ser-Pro-Pro-Lys-Asp-Met-Val-Asp-Leu-Asn-Arg-Arg-Ile-Phe-Val-Ala-Ala-Leu-Asn-Lys-Leu-Glu-COOH [UL80.5 peptide] | 0.3 µg | 
2 | NCCc1c[nH]c2ccc(-c3ccc4ccccc4c3)cc12 [Target compound 6] |  | 4.2 µM

Source: patent US20020004198A1, “Novel anti-infectives” (priority 1998, published 2002)
